Experimental data reported in patent US20060205597A1, “Weed-controlling mulching composition” (priority 2002, published 2006).

Tested on: Rumex obtusifolius, Trifolium repens, and Artemisia indica var. maximowiczii
Test: Field test on bottom weed of an apple orchard
Assay type: in vivo
Conditions: after 3 months
Excerpt: On May 21, 5.0 liters per square meter (m^2) of a slurry obtained by mixing 15% of nonstoichiometric magnesia carbonate cement with 100 fold diluted solution of glyphosate was applied to the bottom weed of an apple orchard in Hirosaki city of Aomori prefecture. The kinds of the bottom weed included Rumex obtusifolius, Trifolium repens, and Artemisia indica var. maximowiczii and these grew to a height of 150 mm. As comparative sections, a glyphosate alone section and a no-glyphosate section were provided and after 3 months the state of growth of weeds was observed. […] From the viewpoint of the thickness of the weed, mixed application of the herbicide and the nonstoichiometric magnesia carbonate cement was very effective and the mixed treatment section inhibited the growth of the weeds until October.

## O=C(O)CNCP(=O)(O)O [glyphosate]
5.0 liters per square meter applied May 21
  state of growth of weeds: again grew
  height of regrown weed (spindly growth): 230 mm
